In general, pEC50 refers to the negative decadic logarithm of the EC50, by convention in mol/L.

pEC50: −log10 of the molar value.

This assay concerns the target T1, purified pig brain tubulin (Sus scrofa, UniProt P02550+P02554).
T1 construct: native alpha/beta-tubulin purified from pig brain
In words: tubulin polymerization, absorbance […] nm. Type of assay: biochemical.

T1 sequence (P02554 whole entry): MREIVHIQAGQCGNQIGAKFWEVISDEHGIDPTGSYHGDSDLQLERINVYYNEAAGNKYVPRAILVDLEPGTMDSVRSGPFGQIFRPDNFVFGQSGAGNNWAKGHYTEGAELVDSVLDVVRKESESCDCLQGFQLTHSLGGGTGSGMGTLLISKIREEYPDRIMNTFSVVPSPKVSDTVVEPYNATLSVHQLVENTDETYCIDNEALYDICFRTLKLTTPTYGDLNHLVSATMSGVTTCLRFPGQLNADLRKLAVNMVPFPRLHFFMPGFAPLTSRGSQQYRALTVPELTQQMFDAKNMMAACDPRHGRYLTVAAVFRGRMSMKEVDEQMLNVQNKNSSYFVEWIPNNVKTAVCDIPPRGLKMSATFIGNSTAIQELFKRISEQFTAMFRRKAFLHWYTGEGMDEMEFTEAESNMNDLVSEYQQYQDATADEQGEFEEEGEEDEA
T1 sequence (P02550 whole entry): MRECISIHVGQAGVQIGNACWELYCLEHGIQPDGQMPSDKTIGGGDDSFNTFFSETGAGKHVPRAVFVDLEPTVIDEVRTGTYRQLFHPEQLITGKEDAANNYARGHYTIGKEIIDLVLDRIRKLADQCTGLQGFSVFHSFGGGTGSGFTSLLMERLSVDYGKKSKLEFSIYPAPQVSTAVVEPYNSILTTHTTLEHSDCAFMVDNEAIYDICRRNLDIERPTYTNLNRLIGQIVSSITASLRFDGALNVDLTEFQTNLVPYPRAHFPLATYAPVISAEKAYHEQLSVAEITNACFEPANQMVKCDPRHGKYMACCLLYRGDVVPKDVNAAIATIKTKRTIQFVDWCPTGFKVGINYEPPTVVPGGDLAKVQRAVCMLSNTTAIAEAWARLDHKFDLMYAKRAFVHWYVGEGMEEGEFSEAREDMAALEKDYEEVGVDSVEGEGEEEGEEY

For the compound `C=C(C)[C@H]1Cc2c(ccc3c2O[C@@H]2COc4cc(OC)c(OC)cc4[C@@H]2C3=O)O1` [Rot, rotenone], the negative logarithm of the EC50 (pEC50) was 6.19.

Values taken from publication PMC10812665, “Definition of the Neurotoxicity-Associated Metabolic Signature Triggered by Berberine and Other Respiratory Chain Inhibitors” (Antioxidants, 2023).
